According to ChEMBL document CHEMBL1201862, “PubChem BioAssay data set” (2004):
The source made the active and inactive calls.

Columns and labels:
[1] = biological target: T1, Endoribonuclease toxin MazF (Escherichia coli K-12, UniProt P0AE70); test: activation of MazEF endoribonuclease cleavage – biochemical, fluorescence, single-stranded RNA substrate, uHTS hits, dose response (AID 588481); format: functional
T1 sequence (P0AE70 whole entry): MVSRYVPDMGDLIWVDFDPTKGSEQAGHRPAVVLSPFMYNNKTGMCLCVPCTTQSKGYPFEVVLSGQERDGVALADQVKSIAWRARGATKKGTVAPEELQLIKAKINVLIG

[2] = biological target: T1, Endoribonuclease toxin MazF; test: substrate-only fluorescence increase artefacts – biochemical, single-stranded RNase substrate, counter-screen for MazEF activator project, dose response (AID 588502); format: functional
[3] = biological target: Mitogen-activated protein kinase 10 (Homo sapiens, UniProt P53779); test: Dose response biochemical screening assay for inhibitors of c-Jun N-Terminal Kinase 3 (JNK3). [Related pubchem assays: 746 ]
Mitogen-activated protein kinase 10, sequence (P53779 whole entry): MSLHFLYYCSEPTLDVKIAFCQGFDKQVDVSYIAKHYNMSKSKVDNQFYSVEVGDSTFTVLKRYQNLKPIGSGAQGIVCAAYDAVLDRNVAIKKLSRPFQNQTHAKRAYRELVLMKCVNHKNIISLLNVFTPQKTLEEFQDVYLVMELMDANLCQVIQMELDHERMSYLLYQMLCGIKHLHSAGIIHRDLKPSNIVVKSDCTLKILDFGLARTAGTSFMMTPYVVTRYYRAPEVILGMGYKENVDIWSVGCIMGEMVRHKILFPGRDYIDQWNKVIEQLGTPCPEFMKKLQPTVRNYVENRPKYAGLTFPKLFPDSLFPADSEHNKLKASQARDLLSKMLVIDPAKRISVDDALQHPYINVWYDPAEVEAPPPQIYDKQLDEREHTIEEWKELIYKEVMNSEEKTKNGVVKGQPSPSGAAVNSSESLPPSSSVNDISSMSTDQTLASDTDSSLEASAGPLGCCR

H9c2 = test: cells; format: functional, cell-based; conditions: Rattus norvegicus, H9c2, Myocardium;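 also: confirmatory concentration-response retest of ultra-high-throughput screening hits for modulation of myocardial damage; cell death induced by hydrogen peroxide oxidative stress; compound pretreatment for 60 min then peroxide exposure for 2 h; potency is for protecting the cells against peroxide damage rather than for killing them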
[4] = Luminescence Cell-Based Dose Retest to Confirm Inhibitors of Cancer Stem Cells. [Related pubchem assays (depositor defined):AID2717, AID2721]; format: functional; conditions: Homo sapiens
[5] = nonselective StAR promoter luciferase inhibitors – cell-based, luminescence, luciferase reporter, counter-screen for LRH-1 inverse agonist project, dose response (AID 651969); format: functional
[6] = biological target: Nuclear receptor subfamily 5 group A member 2 (Homo sapiens, UniProt O00482); format: functional, cell-based;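 also: HEK293T cells transfected with LRH-1 and a StAR promoter luciferase reporter; potency for inhibitors that lower LRH-1 driven reporter light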
Nuclear receptor subfamily 5 group A member 2, sequence (O00482 whole entry): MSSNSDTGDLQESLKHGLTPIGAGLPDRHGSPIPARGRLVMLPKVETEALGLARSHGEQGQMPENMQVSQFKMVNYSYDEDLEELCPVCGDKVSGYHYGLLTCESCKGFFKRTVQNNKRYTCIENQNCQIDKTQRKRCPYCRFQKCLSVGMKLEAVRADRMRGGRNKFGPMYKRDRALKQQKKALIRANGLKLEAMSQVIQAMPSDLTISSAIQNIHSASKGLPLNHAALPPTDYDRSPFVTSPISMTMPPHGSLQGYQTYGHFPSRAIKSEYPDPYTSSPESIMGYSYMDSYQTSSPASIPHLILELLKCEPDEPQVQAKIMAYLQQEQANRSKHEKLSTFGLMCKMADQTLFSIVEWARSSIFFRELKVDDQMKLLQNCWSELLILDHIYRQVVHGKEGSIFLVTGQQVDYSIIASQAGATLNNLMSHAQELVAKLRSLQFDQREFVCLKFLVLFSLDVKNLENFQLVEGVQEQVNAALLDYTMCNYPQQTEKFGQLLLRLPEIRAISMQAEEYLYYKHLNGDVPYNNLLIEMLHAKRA

Steroidogenic factor 1 = Steroidogenic factor 1 (Homo sapiens, UniProt Q13285); test: Counterscreen for inverse agonists of the liver receptor homolog-1 (LRH-1; NR5A2): Luminescence-based cell-based high throughput dose response assay to identify inverse agonists of the Steroidogenic Factor 1 Nuclear Receptor (SF1; NR5A1).; format: functional
Steroidogenic factor 1, sequence (Q13285 whole entry): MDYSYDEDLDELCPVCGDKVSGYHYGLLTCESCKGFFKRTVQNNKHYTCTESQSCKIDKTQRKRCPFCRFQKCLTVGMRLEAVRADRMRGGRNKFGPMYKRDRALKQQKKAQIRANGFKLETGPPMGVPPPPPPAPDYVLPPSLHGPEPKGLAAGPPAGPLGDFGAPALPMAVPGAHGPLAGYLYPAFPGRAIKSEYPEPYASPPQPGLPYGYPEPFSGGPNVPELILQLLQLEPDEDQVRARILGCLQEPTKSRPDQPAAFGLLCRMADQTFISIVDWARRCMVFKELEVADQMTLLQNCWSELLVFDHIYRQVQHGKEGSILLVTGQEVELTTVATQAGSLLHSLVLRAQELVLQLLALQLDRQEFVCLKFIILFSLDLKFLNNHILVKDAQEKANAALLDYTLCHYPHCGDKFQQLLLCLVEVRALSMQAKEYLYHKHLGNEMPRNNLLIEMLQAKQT

[7] = biological target: T2, High affinity choline transporter 1 (Homo sapiens, UniProt Q9GZV3); test: human choline transporter blockers, potency – cell-based, 5-point CRC, membrane potential dye, dose response (AID 504840); format: functional
T2 sequence (Q9GZV3 whole entry): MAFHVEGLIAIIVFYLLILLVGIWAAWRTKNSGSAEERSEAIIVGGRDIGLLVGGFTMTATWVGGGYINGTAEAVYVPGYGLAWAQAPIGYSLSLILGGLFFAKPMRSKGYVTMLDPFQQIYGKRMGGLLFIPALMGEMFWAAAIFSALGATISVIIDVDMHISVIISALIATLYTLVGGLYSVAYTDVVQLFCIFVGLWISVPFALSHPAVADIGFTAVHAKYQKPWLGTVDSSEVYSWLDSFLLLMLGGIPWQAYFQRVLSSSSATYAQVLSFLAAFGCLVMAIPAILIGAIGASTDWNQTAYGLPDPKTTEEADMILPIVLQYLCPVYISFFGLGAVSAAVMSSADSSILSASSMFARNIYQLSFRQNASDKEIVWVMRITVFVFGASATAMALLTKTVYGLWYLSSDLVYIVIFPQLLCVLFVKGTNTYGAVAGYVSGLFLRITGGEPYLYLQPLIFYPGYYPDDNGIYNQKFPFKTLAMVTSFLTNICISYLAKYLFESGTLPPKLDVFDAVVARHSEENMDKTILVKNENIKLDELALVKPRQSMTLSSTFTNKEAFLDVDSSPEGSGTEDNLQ

[8] = intracellular Trypanosoma cruzi inhibitors in host cells – cell-based, plate reader, cherry-pick samples, set 3, dose response (AID 651818); format: functional;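 also: compounds incubated with infected cells for about four days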
[9] = Dd2 malaria parasite growth inhibition potency – SYBR Green, dry powder samples, dose response (AID 1159566); format: functional, cell-based;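 also: potency for growth inhibition with lower SYBR green DNA signal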
[10] = toxicity to human HepG2 hepatoma cells – cell-based, plate reader, dry powder samples, cytotoxicity control, dose response (AID 1159569); format: functional;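 also: inhibitor potency with signal falling toward the positive control level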
[11] = growth inhibition of yeast DHODH-expressing 3D7 parasites – SYBR Green, dry powder samples, dose response (AID 1159570); format: functional, cell-based;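 also: parasite growth measured after 72 hours of compound exposure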
[12] = growth inhibition of PfATP4-mutant resistant parasites – NITD609-resistant line, SYBR Green, dry powder, dose response (AID 1159571); format: functional, cell-based;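 also: parasites synchronized at ring stage by sorbitol before testing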
[13] = P. falciparum Dd2 growth inhibitors, dose response, SYBR Green, cherry-picked samples (AID 1159567); format: functional, cell-based

COc1cc2c(cc1OC)C(/C=C(\O)c1ccc([N+](=O)[O-])c(C)c1)=NCC2
EC50 [1]: > 99 µM (inactive)
EC50 [2]: 43.8 µM (inactive)

CCOC(=O)C1=C(C)OC(N)=C(C#N)C1c1cc2ccccc2nc1N1CCCCC1 (configuration not stated)
IC50 [3]: > 93.1 µM (not active)

Cc1ccc(NC(=O)c2[nH]cnc2C(=O)NCCCNC(=O)c2nc[nH]c2C(=O)Nc2ccc(C)cc2)cc1
IC50 (H9c2): > 79 µM (inactive)
AC50 [4]: 3.39 µM (active)

CCc1cc(=O)oc2cc(C)cc(OCC(=O)NC3CC3)c12
IC50 [5]: 35.9 µM (inactive)
IC50 [6]: 0.292 µM (active)
IC50 (Steroidogenic factor 1): 0.359 µM (active)

Nc1ccc(C(=O)NN2C(=O)[C@H](Cl)C2c2ccc(Cl)cc2)cc1 (some centres not stated)
IC50 [5]: 28.8 µM (inactive)
IC50 [6]: 11.9 µM (inactive)
IC50 (Steroidogenic factor 1): 11.7 µM (inactive)

CCCCN(CCCC)CCNC(=O)c1cn(C)c2ccc(S(=O)(=O)N(C)C3CCCCC3)cc2c1=O
IC50 [7]: 15.6 µM (active)

COc1cc(C(=O)NCC(=O)N/N=C/c2ccc(-c3cccc([N+](=O)[O-])c3)o2)cc(OC)c1OC
IC50 (H9c2): 10.6 µM (active)

COc1ccc(/C=N/NC(=O)c2cccnc2)cc1CSc1nc2ccccc2s1
IC50 (H9c2): 21.2 µM (active)

C[C@H](CO)N1C[C@H](C)[C@H](CN(C)C(=O)Nc2ccccc2)Oc2ncc(C#Cc3ccc(C(F)(F)F)cc3)cc2C1=O
AC50 [8]: 1.37 µM (active)

Cc1noc(C)c1S(=O)(=O)Nc1ccc2c(c1)CC(=O)N([C@H](C)CO)C[C@@H](C)[C@@H](CN(C)Cc1ccc(Cl)c(Cl)c1)O2
AC50 [8]: 6.96 µM (active)

C[C@H]1CN([C@@H](C)CO)C(=O)Cc2cc(NC(=O)Nc3ccc(C(F)(F)F)cc3)ccc2O[C@H]1CN(C)Cc1ccc(C(F)(F)F)cc1
AC50 [8]: 4.47 µM (active)

C[C@@H]1CN([C@H](C)CO)C(=O)Cc2cc(NC(=O)Nc3ccc(C(F)(F)F)cc3)ccc2O[C@@H]1CN(C)Cc1ccc(C(F)(F)F)cc1
AC50 [8]: 1.19 µM (active)

C[C@@H]1CCCCO[C@@H](CN(C)Cc2ccc(Cl)c(Cl)c2)[C@@H](C)CN([C@H](C)CO)C(=O)c2cc(NS(=O)(=O)c3ccc(Cl)cc3)ccc2O1
AC50 [8]: 6.5 µM (active)

OC[C@@H]1[C@@H](c2ccccc2)C2(CN(Cc3ccccc3F)C2)N1Cc1ccccc1F
AC50 [9]: 1.65 µM (active)
AC50 [10]: 35.8 µM (active)
AC50 [11]: 2.31 µM (active)
AC50 [12]: 1.94 µM (active)

CN(C)/C=c1\sc2c(C#N)cc(C(=O)c3ccc(Br)cc3)n2c1=O
EC50 [1]: > 99 µM (inactive)
EC50 [2]: 22.3 µM (inactive)

CC(=O)Nc1cc(Cl)c(/N=C/c2ccc(O)cc2O)cc1Cl
EC50 [1]: > 99 µM (inactive)
EC50 [2]: > 99 µM (inactive)

COc1ccc(C#Cc2ccc([C@H]3[C@H]4CN(C(=O)c5ccccc5)CC(=O)N4[C@H]3CO)cc2)cc1
AC50 [9]: 2.26 µM (active)
AC50 [10]: 23.5 µM (active)
AC50 [11]: 3.84 µM (active)
AC50 [13]: 2.52 µM (active)
AC50 [12]: 2.13 µM (active)

CO[C@H]1CN(C)C(=O)c2cc(NC(=O)C3CC3)ccc2OC[C@H](C)N(Cc2cc(F)ccc2F)C[C@H]1C
AC50 [9]: 1.35 µM (active)
AC50 [10]: 45.2 µM (active)
AC50 [11]: 4.89 µM (active)
AC50 [13]: 2.14 µM (active)
AC50 [12]: 1.99 µM (active)
